In US20220162215A1, “COMPOSITIONS AND METHODS OF USING THE SAME FOR TREATMENT OF NEURODEGENERATIVE AND MITOCHONDRIAL DISEASE” (MITOKININ, INC., priority 2019, published 2022):
Read-outs that look alike come from different tables or passages of the source.

Columns and labels:
α-synuclein = test: Preformed α-syn amyloid fibril (PFF) mouse model; type: in vivo; conditions: oral dosing; for all analyzed species of α-synuclein: 50 mg/kg max
Method: Animals. C57BL6 mice were obtained from the Jackson Laboratories.
Injection material and stereotaxic injections. Purification of recombinant α-synuclein proteins and in vitro fibril assembly was performed as previously described (K. C. Luk et al., Intracerebral inoculation of pathological α-synuclein initiates a rapidly progressive neurodegenerative α-synucleinopathy in mice. J. Exp. Med. 209, 975 (2012)) from full-length wildtype mouse α-synuclein (5 mg/mL). Assembly reactions were agitated in an Eppendorf orbital mixer (1,000 rpm at 37° C.) and α-synuclein pre-formed fibrils (PFFs) harvested after 5 d. Preparations were diluted in sterile PBS and sonicated briefly with a hand-held probe sonicator (Fisher Scientific Model 120) prior to injection. Mice between 2 and 3 months of age were anesthetized with ketamine hydrochloride (100 mg/kg, i.p.) and xylazine (10 mg/kg, i.p.) and stereotaxically injected in one hemisphere of the striatum with PFFs (5 μg). Control animals received sterile PBS. To target the striatum, a single needle insertion (co-ordinates: +1.0 mm relative to Bregma, +2.0 mm from midline) into the right forebrain was used (+2.6 mm beneath the dura). Injections were performed using a motorized injector at a rate of 0.2 μL per min (2.5 μL total per site) with the needle in place for >5 min at each target. Animals were monitored regularly following recovery from surgery. Starting 7 days after surgery, a daily oral dose of EP-0035985 or vehicle control was administered, continuing for the duration of the study. The animals were sacrificed at 30 days post injection by overdose with isofluorane, and their brains removed following transcardial perfusion with PBS. Brains were sectioned into striatum and ventral midbrain sections, and immediately frozen and stored at −80° C. until used.
Biochemical analysis. Dissected brain regions of interest were extracted as in Yun, P. S., et al Nat Med. 2018 July; 24(7):931-938. Briefly, sections were homogenized in brain lysis buffer containing 10 mM Tris-HCl, pH 7.4, 150 mM NaCl, 5 mM EDTA, 0.5% IGEPAL® CA-630 (Nonidet P-40), 1× Halt™ Protease and Phosphatase Inhibitor Cocktail. 0.2 mL of buffer was used per tissue section. Samples were homogenized using a mortar pestle and then 0.3 mL brain lysis buffer was added before clearing at 300×g for 3 minutes at 4° C. Supernatant was then transferred to a new tube and cleared at 22,000×g for 20 min at 4° C. The supernatant should be transferred and the pellet washed with 0.3 mL brain lysis buffer before repeating the clearing step. Subsequent to this the pellet should be further homogenized (sonicating for 20 s at 20% amplitude on ice) in 0.2 mL per sample SDS-Brain lysis buffer containing 10 mM Tris-HCl, pH 7.4, 150 mM NaCl, 5 mM EDTA, 0.5% Nonidet P-40, 1% SDS, 0.5% sodium deoxycholate. Protein concentrations were determined using the BCA assay (Pierce) and samples (10 μg total protein) were separated on SDS-polyacrylamide gels (4-20% gradient) and transferred onto nitrocellulose membranes. Blots were blocked in 5% BSA in TBST and probed using various primary antibodies. Target antigens were detected using an Odyssey FC scanner (LiCor) following incubation with the appropriate infrared secondary antibodies.

[1] = Visual inspection of crystallization; type: physicochemical; design: key: 1: yes crystals; 0: no crystals; conditions: Tables 5A-5D
Method: (§1) Briefly, the Hela MKYP (Mito-Keima/YFP-Parkin) cells were seeded at 10K cells/well. EP/MTK compounds were added at seeding (cells were still in suspension). The cells were incubated with the EP/MTK compounds for 16 hours, then 1 μM FCCP/oligomycin was added for 6 hours. Prior to harvesting, cells were scored by eye under 20× magnification for the presence or absence of crystalline or aggregated compound, or round cells.

HeLa MKYP cells = test: Human mitophagy assay (HeLa MKYP, mtKeima FACS, FCCP/oligomycin); type: cell-based; conditions: for EC50: Homo sapiens, HeLa
Method: Briefly, HeLa MKYP cells were plated at 10,000 cells/well in 96 well plates along with compounds at various concentrations. Following 16 hrs of incubation, cells were treated with 1 uM FCCP/oligomycin for 6 hours, then analyzed via FACS for the presence of mitochondria in lysosomes (as determined by an emissions spectrum shift from the pH-sensitive mtKeima tag). Examples are shown in FIG. 1 through FIG. 13 below.

[2] = tested on: Hela MKYP (Mito-Keima/YFP-Parkin) cells; test: Inspection of round cells; conditions: Tables 6A-6D
Method: as §1

PINK1 = biological target: T1, PINK1 (Homo sapiens, UniProt Q9BXM7); test: pS65 Ubiquitin ELISA assay (HeLa-MKYP WT or PINK1 KO); type: cell-based; conditions: PINK1wt vs PINK1ko cells, FIG. 17A
T1 construct: for each cell type tested (HeLa-MKYP WT or PINK1^KO); endogenous in cells; host or cells: HeLa-MKYP (WT) / HeLa cells
Method: HeLa-MKYP cells were plated at 10,000 cells/well in 96-well plates along with compounds at various concentrations. Following 16 hours of incubation, cells were treated with 1 μM FCCP/oligomycin (F/O) along with compounds at various doses for 2-3 hours. Appropriate controls were included on each plate to obtain a maximum signal from treatment with 10 μM F/O or, and a minimum signal from cells treated with no F/O with DMSO for each cell type tested (HeLa-MKYP WT or PINK1^KO). At the desired timepoint, media was removed and cells were frozen prior to lysis. Cells lysates were denatured by boiling, prior to analysis by a custom ELISA assay using commercially available antibodies (using anti-phospho-ubiquitin as a capturing antibody, and anti-total ubiquitin as a detection antibody). Purified pS65 ubiquitin was used to generate a standard curve and determine timing for ELISA reaction development.

T1 sequence (Q9BXM7 78-581): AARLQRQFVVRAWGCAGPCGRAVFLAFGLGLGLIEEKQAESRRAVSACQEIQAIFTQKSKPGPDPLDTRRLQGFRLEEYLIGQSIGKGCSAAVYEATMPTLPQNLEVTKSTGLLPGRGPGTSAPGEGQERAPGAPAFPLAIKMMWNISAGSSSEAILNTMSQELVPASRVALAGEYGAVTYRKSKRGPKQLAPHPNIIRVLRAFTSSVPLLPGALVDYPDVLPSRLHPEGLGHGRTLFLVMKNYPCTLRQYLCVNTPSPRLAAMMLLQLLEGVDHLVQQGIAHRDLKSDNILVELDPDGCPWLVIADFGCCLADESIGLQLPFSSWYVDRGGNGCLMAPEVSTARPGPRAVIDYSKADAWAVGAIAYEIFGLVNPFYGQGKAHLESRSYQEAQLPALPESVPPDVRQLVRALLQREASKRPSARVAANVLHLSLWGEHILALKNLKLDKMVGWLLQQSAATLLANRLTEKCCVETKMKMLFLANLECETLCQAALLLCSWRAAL

FC(F)(F)c1cc2c(NC3CCCc4ccccc43)ncnc2[nH]1 (centres unmarked) [Compound 15]
all analyzed species of α-synuclein (α-synuclein; contralateral striatum, FIG. 30): drives a decrease in all analyzed species of α-synuclein at 50 mg/kg max
all analyzed species of α-synuclein (α-synuclein; ipsilateral striatum, FIG. 29): drives a decrease in all analyzed species of α-synuclein at 50 mg/kg max
c-terminal truncation of α-synuclein (14 kDA) (α-synuclein; ipsilateral striatum, FIG. 26): drives a decrease in c-terminal truncation of α-synuclein (14 kDA)
pS129 monomer of α-synuclein (α-synuclein; ipsilateral striatum, FIG. 27): drives a decrease in pS129 monomer of α-synuclein
total monomer of α-synuclein (α-synuclein; ipsilateral striatum, FIG. 28): drives a decrease in total monomer of α-synuclein
all analyzed species of α-synuclein (α-synuclein; ventral midbrain, FIG. 31): drives a decrease in all analyzed species of α-synuclein at 50 mg/kg max
Visual inspection of crystallization ([1]; 1.6 μM): 0
Visual inspection of crystallization ([1]; 3.1 μM): 0
Visual inspection of crystallization ([1]; 6.3 μM): 0
Visual inspection of crystallization ([1]; 12.5 μM): 0
Visual inspection of crystallization ([1]; 25.0 μM): 0
Visual inspection of crystallization ([1]; 50.0 μM): 0
EC50 (HeLa MKYP cells; Table 3 Supplement B, read-out: Mitophagy EC50 (HeLa mKeima assay)): 0.44 ± 0.12 µM
EC50 (HeLa MKYP cells; Table 4, read-out: Potency (EC50 Max Mitophagy)): 0.44 ± 0.12 µM
mitophagy as measured by FACS mKeima (HeLa MKYP cells; PINK1wt vs PINK1ko cell lines, FIG. 19): increases mitophagy as measured by FACS mKeima in PINK1^wt but not PINK1^ko cell lines
Potency at 1 μM F/O toxin* (HeLa MKYP cells; Table 2, % activation of mitophagy at 1.6 μM treatment of the compound): 55.5%
Inspection of round cells ([2]; 1.6 μM): 0
Inspection of round cells ([2]; 3.1 μM): 0
Inspection of round cells ([2]; 6.3 μM): 0
Inspection of round cells ([2]; 12.5 μM): 0
Inspection of round cells ([2]; 25.0 μM): 0
Inspection of round cells ([2]; 50.0 μM): 0
pS65 Ub (PINK1 substrate phosphorylation) (PINK1): significant increase in pS65 Ub in PINK1^wt cells but not in PINK1^ko cell lines
